Structures are written as SMILES. Read-outs that look alike come from different tables or passages of the source.

One assay concerns the target T1, TXA2 synthase (Homo sapiens, UniProt P24557).
T1 construct: using microsomal fractions from human platelets as enzyme source; from tissue; host or cells: human platelets, microsomal fraction
T1 sequence (P24557 1-533): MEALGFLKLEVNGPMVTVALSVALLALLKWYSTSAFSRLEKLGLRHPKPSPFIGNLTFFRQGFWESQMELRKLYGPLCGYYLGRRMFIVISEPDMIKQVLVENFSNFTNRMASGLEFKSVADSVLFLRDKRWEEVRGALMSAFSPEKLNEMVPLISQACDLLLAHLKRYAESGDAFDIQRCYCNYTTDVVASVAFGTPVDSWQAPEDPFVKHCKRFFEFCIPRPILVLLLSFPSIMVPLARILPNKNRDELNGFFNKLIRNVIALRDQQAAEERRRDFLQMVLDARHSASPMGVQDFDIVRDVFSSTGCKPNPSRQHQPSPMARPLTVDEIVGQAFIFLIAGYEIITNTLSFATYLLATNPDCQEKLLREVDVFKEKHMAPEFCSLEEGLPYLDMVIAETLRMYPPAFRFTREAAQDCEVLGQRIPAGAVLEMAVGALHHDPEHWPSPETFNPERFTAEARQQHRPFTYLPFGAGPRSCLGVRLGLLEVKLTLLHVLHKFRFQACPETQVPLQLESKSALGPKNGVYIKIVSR
The assay is described as follows: Thromboxane Synthase Inhibition, In Vitro. It counts as biochemical. To be noted: human platelet microsomes; for inhibition at 0.1 µM: at 10^-7 M. The method, then: TXA2 synthase activity is measured by following the conversion of ^14 C-prostaglandin endoperoxide (PGH2) to ^14 C-thromboxane A2 (TXA2) using microsomal fractions from human platelets as enzyme source. In the aqueous incubation medium, the TXA2 decomposes rapidly into TXB2. The amount of TXA2 synthase is adjusted so that under the conditions of the assay approximately 80-90% of the substrate, PGH2, is converted to product in control tubes. To prepare ^14 C--PGH2, ^14 C--AA (50-60 mCi/mmole; Rose Chem.) is incubated with sheep seminal vesicular gland microsomes for 1.5 minutes at 37° C. and then the ^14 C--PGH2 is extracted with diethylether, purified on columns of Sephadex LH-20 or silicic acid, and stored in acetone at -70° C. Incubations are done as follows. Sufficient ^14 C--PGH2 to yield a final substrate concentration of 10 μM (30,000 cpm) is added to the incubation tubes and then the acetone is removed under nitrogen. The tubes are placed in an ice bath and then 215 μl of ice cold phosphate buffered saline, 10 μl of ethanol (control) or of test drug in ethanol, and 25 μl of the microsomal suspension are added with mixing in that order as rapidly as possible. The tubes are incubated at 22° C. for 2 minutes, the reaction is stopped and then the radioactive products and the uncoverted PGH2 are extracted and analyzed by thin layer chromatography. […] The amount of ^14 C--PGH2 converted to products was used as a measure of TXA2 synthase activity. Inhibitors were tested initially at a final concentration of 100 μM. Results obtained with representative compounds of the present invention in this assay are summarized hereafter in Table I.

Assay [1] deals with SRS-A-induced constriction of the guinea pig ileum. The assay can be described thus: Guinea Pig Ileum, In Vitro (inhibition of SRS-A-induced constriction). Type of assay: cell-based. To be noted: Cavia porcellus; SRS-A-induced constriction; in vitro; read-out: Guinea Pig Ileum, IC50. The method, then: The guinea pig ileum bioassay system has been described by Orange and Austen, Adv. Immunol. […] A 1.5 cm segment is removed from animals weighing 300-400 g. and suspended in an organ bath containing 10 ml. of Tyrodes solution with 10^-6 M atropine sulfate and 10^-6 M pyrilamine maleate. […] The SRS-A utilized in this screen is obtained by challenging chopped lung fragments from actively sensitized guinea pigs with egg albumin, in vitro. A dose-response curve to SRS-A challenge is established for the ileum. […] The drug concentration which inhibits, by 50%, the SRS-A-induced constriction of the guinea pig ileum is determined.

The target in a further assay is T2, Δ^5 -Lipoxygenase (Rattus norvegicus, UniProt P12527).
T2 construct: using rat basophil leukemia cells (RBL-1 cells) as the enzyme source; endogenous in cells; host or cells: RBL-1 (rat basophil leukemia) cells, 49,300×g supernatant of homogenate
T2 sequence (P12527 1-673): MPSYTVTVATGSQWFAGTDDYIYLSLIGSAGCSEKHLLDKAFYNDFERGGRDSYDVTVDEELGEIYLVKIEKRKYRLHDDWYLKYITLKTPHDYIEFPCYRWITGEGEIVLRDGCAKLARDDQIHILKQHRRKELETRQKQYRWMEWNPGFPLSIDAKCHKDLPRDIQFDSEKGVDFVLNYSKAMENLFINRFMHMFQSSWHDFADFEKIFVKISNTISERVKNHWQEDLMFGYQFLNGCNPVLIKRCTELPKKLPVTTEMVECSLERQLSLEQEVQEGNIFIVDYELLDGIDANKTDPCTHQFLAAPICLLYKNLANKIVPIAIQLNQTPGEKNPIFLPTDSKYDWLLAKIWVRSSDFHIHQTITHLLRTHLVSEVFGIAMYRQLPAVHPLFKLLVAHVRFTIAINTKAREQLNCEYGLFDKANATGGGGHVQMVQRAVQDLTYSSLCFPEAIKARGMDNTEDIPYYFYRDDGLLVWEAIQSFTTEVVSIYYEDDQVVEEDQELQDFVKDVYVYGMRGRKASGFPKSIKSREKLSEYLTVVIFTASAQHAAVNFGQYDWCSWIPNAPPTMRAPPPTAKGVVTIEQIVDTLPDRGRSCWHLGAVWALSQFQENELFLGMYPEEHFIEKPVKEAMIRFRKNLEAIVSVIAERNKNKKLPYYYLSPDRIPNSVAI
The assay is described as follows: Δ^5 -Lipoxygenase Inhibition. It counts as biochemical. To be noted: at 10^-5 M; RBL-1 cell supernatant. The method, then: Δ^5 -Lipoxygenase inhibition was measured by following the conversion of ^14 C-arachidonic acid to ^14 C-5-HETE, using rat basophil leukemia cells (RBL-1 cells) as the enzyme source. These cells were maintained in stationary stock cultures and grown in spinner cultures prior to isolation by centrifugation at 4° C. at 1,500×g for 10 minutes. The cells were washed three times at 4° C. with 0.05M Tris HCl (ph 7.2) containing 1 mM EDTA, 14 μM indomethacin and 0.9% NaCl. They were then homogenized at 0°-4° C. using a glass/glass homogenizer in 0.05M Tris-HCl (pH 7.2) containing 1 mM EDTA and 14 μM indomethacin. The homogenate was then centrifuged at 49,300×g for 20 minutes (0°-4° C.) and the resulting supernatant frozen in small aliquots in a dry ice/acetone bath prior to storage at -80° C. Under these conditions, the enzyme was stable to freezing and thawing and to preincubation for 10 minutes at 30° C.
For enzyme assay, 100-200 μl of enzyme was incubated in the presence and absence of test compound (prepared in DMSO) for 10 minutes at 30° C. in 0.05M Tris-HCl buffer (pH 7.2) containing 1 mM glutathione, 2 mM CaCl2, 14 μM indomethacin and 0.25 and 0.5 mM EDTA (final volume 400 μl). The final DMSO concentration in these assays was 4%. The assay was initiated by the addition of 100 μl ^14 C-arachidonic acid (58 mCi/mmole) and incubations were carried out for 10 minutes at 37° C. in a shaking water bath. The reactions were stopped by the simultaneous addition of 4.0 ml of diethylether and 100 μl of 1.0 m citric acid, while the tubes were vigorously vortexed. The ^14 C-5-HETE generated by the enzyme was extracted into the acidified ether layer which was separated from the aqueous layer by freezing the assay tubes in a dry ice/acetone bath prior to decanting the liquid ether layer. The ether layer was evaporated to dryness under N2, the residue dissolved in 65 μl chloroform:methanol (2:1 v/v), prior to separating ^14 C-5-HETE from other ^14 C-labeled compounds on silica gel impregnated glass fiber TLC plates utilizing an elution solvent of isoctane:methylethylketone:acetic acid (100:9:1 v/v). ^14 C-5-HETE was identified by its co-chromatography with a chemically synthesized standard. The radioactive peaks of the chromatogram were cut out and the radioactivity was quantitated by liquid scintillation counting. The amount of 5-HETE obtained per sample was expressed as the percent of total and was calculated in the basis of: [formula] in order to evaluate the effect of the test compounds, the mean percent inhibition of ^14 C-5-HETE production was calculated. The IC50 for a drug was determined from a linear regression analysis of a plot of the mean percent inhibition vs drug concentration.

Assay [2] relates to LTD4-induced blood pressure changes and arrhythmias. The assay is described as follows: Leukotriene D4 (LTD4) Induced Arrhythmias in Conscious Guinea Pigs. Type of assay: in vivo, guinea pig. Particulars: 10 mg/kg iv, 5 minutes before LTD4; for Peak Hypertension (Δmm Hg): saline control 30 ± 4; for % Arrhythmias: saline control 33 ± 4; for Peak Hypotension (Δmm Hg): saline control -45 ± 4. The method, then:
Male Hartley guinea pigs are anesthetized with sodium pentobarbital and prepared for monitoring direct blood pressure and injecting drugs intravenously by catheterizing the right carotid artery and right jugular vein. Blood pressure, heart rate, and Lead II ECG are monitored in the conscious animal 24 hours later.
Intravenous administration of LTD4 (2.5 μg/kg) is associated with an increase in blood pressure lasting approximately 1-2 minutes followed by a decrease lasting approximately 5-15 minutes. Abnormal beats consisting of premature ventricular contractions, ST elevation or depression, atrioventricular conduction block, or dissociated p waves begin during the rise in blood pressure; the peak effect occurs approximately 40 seconds after LTD4. The percent of abnormal beats was quantitated by determining the number present during the first 2 minutes after injection and calculating the percent increase above the control level. During the hypotensive response, the animal usually collapses during the 2nd or 3rd minute after LTD4 and regains posture approximately 10 minutes after LTD4.
Test compounds were administered 5 minutes before the LTD4 challenge and effects on blood pressure and arrhythmias were monitored.

Assay [3] addresses T3, PAF receptor (dog platelets) (Canis lupus familiaris, UniProt A0A8I3NSH0).
T3 construct: followed by 2×10^7 dog platelets; from tissue; host or cells: dog platelets, washed, intact
T3 sequence (A0A8I3NSH0 1-343): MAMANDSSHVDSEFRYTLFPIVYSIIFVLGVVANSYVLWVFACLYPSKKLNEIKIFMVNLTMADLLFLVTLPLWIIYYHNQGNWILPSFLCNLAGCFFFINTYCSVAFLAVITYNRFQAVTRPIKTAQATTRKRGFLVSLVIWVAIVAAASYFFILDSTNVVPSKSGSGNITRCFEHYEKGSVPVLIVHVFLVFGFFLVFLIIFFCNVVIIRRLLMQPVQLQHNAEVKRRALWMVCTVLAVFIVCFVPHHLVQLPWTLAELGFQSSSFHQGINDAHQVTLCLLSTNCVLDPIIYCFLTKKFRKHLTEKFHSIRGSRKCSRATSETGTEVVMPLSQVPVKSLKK
The assay is described as follows: PAF Radioreceptor Binding Assay. Particulars: 3H-PAF. The method, then: Platelet rich plasma is prepared by centrifugation of citrate-treated dog blood. Acidification to pH 6.5 with 0.15M citric acid and centrifugation for 10 minutes at 1000 g yields a platelet pellet which is then washed by resuspension in EDTA-Phosphate Buffered Saline (PBS) and recentrifuged. The washed platelet preparation is adjusted to 2×10^7 platelets/50 μl in 0.1% BSA-PBS.
To a […] microfuge tube containing 50 μl silicone oil (specific gravity 1.023) is added buffer, PAF standard or analog, or an extract to bring the aqueous volume to 150 μl. 50 μl of ^3 H-PAF (10,000 cpm, 45 Ci/mM) is added followed by 2×10^7 dog platelets. After mixing, incubating for 10 minutes at room temperature, and centrifuging for 1 minute in a Beckman Microfuge B (8000 g), the pellet is removed by clipping off the tip of the tube, solubilizing the platelets with 200 μl of 50% methanol, and counting in 10 ml of Aquasol. […] Results obtained with representative compounds of the present invention in this assay are summarized hereinafter in Table I.

The test system of assay [4] is LTE4-induced increase of vascular permeability in rat skin. The assay can be described thus: Rat Skin Permeability, In Vivo (LTE4-induced wheal). To be noted: LTE4 intradermal.

A word on the inhibition: it is the change of the read-out against control, counted positive when it falls. Read a high inhibition as a response far below the control. As usually defined, the IC50 is the midpoint of a concentration-inhibition curve. As to `CC(C)c1ccc2ncn(/C=C/C(=O)NCCNCc3cccnc3)c(=O)c2c1`, the inhibition at 1 µM at TXA2 synthase (at 10^-6 M) was found to be 33%. Moreover, in assay [1], the IC50 was determined as 8 µM.
Consider `CC(C)c1ccc2ncn(/C=C/C(=O)NCCSc3ccncc3)c(=O)c2c1`, for which the inhibition at 0.1 µM at TXA2 synthase was determined as 31%. The compound further returned an inhibition at 10 µM against Δ^5 -Lipoxygenase of 56%. In addition, the IC50 in assay [1] worked out at 10 µM.
Turning to `CC(C)c1ccc2ncn(/C=C/C(=O)NCCCCn3ccnc3)c(=O)c2c1` [drawing 31], in assay [2], the “Peak Hypertension (Δmm Hg)” value is given as 10 ± 0 Δmm Hg, the “% Arrhythmias” value stood at 0 ± 3% and the “Peak Hypotension (Δmm Hg)” value is -45 ± 8 Δmm Hg.
`CC(C)c1ccc2ncn(/C=C/C(=O)NCCCCOc3cccnc3)c(=O)c2c1` [drawing 30]: in assay [2], the “Peak Hypertension (Δmm Hg)” value is reported as 19 ± 7 Δmm Hg, the “% Arrhythmias” value stood at 0 ± 0% and the “Peak Hypotension (Δmm Hg)” value is -42 ± 9 Δmm Hg.
In the same order, the values of `CC(C)c1ccc2ncn(/C=C/C(=O)NCCCCc3cccnc3)c(=O)c2c1` [drawing 29] are 21 ± 6 Δmm Hg, 1 ± 1% and -45 ± 4 Δmm Hg.
In assay [3], `CC(C)c1ccc2ncn(/C=C/C(=O)NCCCCCCc3cccnc3)c(=O)c2c1` showed an IC50 above 1 µM.
On to `CC(C)c1ccc2ncn(/C=C/C(=O)NCCCCn3ccnc3)c(=O)c2c1` [Compound C, N-[4-(1H-imidazol-1-yl)butyl]-(E)-3-[6-(1-methylethyl)-4-oxo-4H quinazolin-3-yl]-2-propenamide], for which the ED50 amounted to 17 mg/kg in assay [4] (iv, 0.5 h, i.v., read-out: I.D.50, skin wheal, i.v.) and 96 mg/kg in assay [4] (po, read-out: I.D.50, skin wheal, oral).
`CC(C)c1ccc2ncn(/C=C/C(=O)N(C)CCCCc3cccnc3)c(=O)c2c1` returned an inhibition at 0.1 µM against TXA2 synthase of 48%. Moreover, the IC50 in assay [1] stood at 10 µM.
In turn, `CC(C)c1ccc2ncn(/C=C/C(=O)NCCCCCCNc3ccccn3)c(=O)c2c1` yielded an inhibition at 10 µM against Δ^5 -Lipoxygenase of 25%. For the same compound, in assay [1], the IC50 turned out to be 5 µM.
Turning to `CC(C)c1cc(C(C)C)c2ncn(/C=C/C(=O)NCCCCc3cccnc3)c(=O)c2c1`, the inhibition at 0.1 µM against TXA2 synthase was determined as 51%. Also, in assay [1], the IC50 was 1 µM.

(Values after patent publication US4599336A, “Derivatives of (E)-3-(4-oxo-4H-quinazolin-3-yl)-2-propenamide” (Hoffmann-La Roche Inc., priority 1983, dated 1986).)
